Measurements published in patent US8119696B2, “Treatment of superficial and cutaneous mycoses with a pure form of 1,7-bis(4-hydroxy-3-methoxyphenyl)-3,5-heptanedione” (priority 2007, dated 2012).
Entries after “also recorded” stand apart in the source; their conditions may differ.

Columns and labels:
Format in all cases: cell-based
[1] = system: Malassezia furfur; test: Antifungal efficacy, agar dilution method (Sabourauds Dextrose Agar with an overlay of coconut oil); conditions: for Growth of test organism (Negative/Growth): DMSO solvent, trials MF1-MF3
[2] = system: Trichophyton rubrum; test: Anti-dermatophytic activity, agar dilution method (Sabouraud's dextrose agar); conditions: for Growth of test organism (Negative/Growth): DMSO solvent, SDA, trials TR1-TR3; for Inhibition of growth at all tested concentrations: concentrations 0.15%, 0.31%, 0.625%, 1.25%, 2.50% and 5.0%
Description: (§1) The anti-dermatophyte efficacy testing for greater than 99% pure form of 1,7-Bis(4-hydroxy-3-methoxyphenyl)-3,5-heptanedione (coded TP) in comparison to the corresponding 95% pure form (coded SW) was done by the agar dilution method. The medium used was Sabouraud's dextrose agar (SDA). Doubling concentration ranges from about 0.15% to about 5% of TP and […] was prepared in 5 ml Dimethylsulfoxide and added to 95 ml of SDA to form a total volume of 100 ml of the medium. The test organisms Trichophyton rubrum, Microsporum gypseum and Epidermophyton floccosum encoded as TR, MG and EF were inoculated in biosafety level 2 standards into the media comprising test compounds in the specified concentration ranges. Triplicate experiments were set up for each of the three fungi for each concentration of the test compounds to ensure reproducibility of results. DMSO and SDA controls were also included in triplicates for the test.
(§2) The test results are represented as Table I (FIG. 1, FIG. 2 and FIG. 3). The table may be read as follows. For example, TPTR1 represents growth of Trichophyton rubrum in greater than 99% pure form of 1,7-Bis (4-hydroxy-3-methoxyphenyl)-3,5-heptanedione in the first test. Similarly duplicate and triplicate testing are represented as TPTR2 and TPTR3.

[3] = system: Microsporum gypseum; test: as above; conditions: for Growth of test organism (Negative/Growth): DMSO solvent, SDA, trials MG1-MG3; for Inhibition of growth at all tested concentrations: concentrations 0.15%, 0.31%, 0.625%, 1.25%, 2.50% and 5.0%
Description: as §1, §2

[4] = system: Epidermophyton floccosum; test: as above; conditions: for Growth of test organism (Negative/Growth): DMSO solvent, SDA, trials EF1-EF3; for Inhibition of growth at all tested concentrations: concentrations 0.15%, 0.31%, 0.625%, 1.25%, 2.50% and 5.0%
Description: as §1, §2

[5] = system: Candida albicans NCIM 3471 (yeast); test: Activity against Candida species: colony counts over 28 days
[6] = system: Fusarium oxysporum (mycotoxin producing fungus); test: Activity against Fusarium oxysporum: counts over 28 days; conditions: inoculation level 1 × 10^7 CFU/g
[7] = final concentration 0.15%, listed as 95% pure form of 1,7-Bis(4-hydroxy-3-methoxyphenyl)-3,5-heptanedione
[8] = test interval 7 days, listed as 1,7-bis(4-hydroxy-3-methoxyphenyl)-3,5-heptanedione (about 95% purity)
[9] = test interval 14 days, listed as 1,7-bis(4-hydroxy-3-methoxyphenyl)-3,5-heptanedione (about 95% purity)
[10] = test interval 21 days, listed as 1,7-bis(4-hydroxy-3-methoxyphenyl)-3,5-heptanedione (about 95% purity)
[11] = test interval 28 days, listed as 1,7-bis(4-hydroxy-3-methoxyphenyl)-3,5-heptanedione (about 95% purity)
[12] = listed as greater than 99% pure form of 1,7-Bis(4-hydroxy-3-methoxyphenyl)-3,5-heptanedion
[13] = test interval 7 days, listed as 1,7-bis(4-hydroxy-3-methoxyphenyl)-3,5-heptanedione (>99% purity)
[14] = test interval 14 days, listed as 1,7-bis(4-hydroxy-3-methoxyphenyl)-3,5-heptanedione (>99% purity)
[15] = test interval 21 days, listed as 1,7-bis(4-hydroxy-3-methoxyphenyl)-3,5-heptanedione (>99% purity)
[16] = test interval 28 days, listed as 1,7-bis(4-hydroxy-3-methoxyphenyl)-3,5-heptanedione (>99% purity)
[17] = test interval 28 days, listed as greater than 99% pure form of 1,7-bis(4-hydroxy-3-methoxyphenyl)-3,5-heptanedion

COc1cc(CCC(=O)CC(=O)CCc2ccc(O)c(OC)c2)ccc1O [SW, 1,7-Bis(4-hydroxy-3-methoxyphenyl)-3,5-heptanedione]
Concentration that inhibits the growth of the fungus ([1]; agar dilution): ≥ 1.25% | Growth of test organism (Negative/Growth) ([1]; final concentration 0.15%): Growth | Growth of test organism (Negative/Growth) ([1]; final concentration 0.31%): Growth | Growth of test organism (Negative/Growth) ([1]; final concentration 0.625%): Growth | Growth of test organism (Negative/Growth) ([1]; final concentration 1.25%): Negative; also recorded: Growth | Growth of test organism (Negative/Growth) ([1]; final concentration 2.5%): Negative | Growth of test organism (Negative/Growth) ([1]; final concentration 5%): Negative | Growth of test organism (Negative/Growth) ([2]; final concentration 0.15%): tolerated by the fungi; also recorded: Growth | Growth of test organism (Negative/Growth) [2, 7]: grow | Growth of test organism (Negative/Growth) ([2]; final concentration 0.31%): Negative | Growth of test organism (Negative/Growth) ([2]; final concentration 0.625%): Negative | Growth of test organism (Negative/Growth) ([2]; final concentration 1.25%): Negative | Growth of test organism (Negative/Growth) ([2]; final concentration 2.5%): Negative | Growth of test organism (Negative/Growth) ([2]; final concentration 5%): Negative | Growth of test organism (Negative/Growth) ([3]; final concentration 0.15%): tolerated by the fungi; also recorded: Growth | Growth of test organism (Negative/Growth) [3, 7]: grow | Growth of test organism (Negative/Growth) ([3]; final concentration 0.31%): Negative | Growth of test organism (Negative/Growth) ([3]; final concentration 0.625%): Negative | Growth of test organism (Negative/Growth) ([3]; final concentration 1.25%): Negative | Growth of test organism (Negative/Growth) ([3]; final concentration 2.5%): Negative | Growth of test organism (Negative/Growth) ([3]; final concentration 5%): Negative | Growth of test organism (Negative/Growth) ([4]; final concentration 0.15%): able to grow; also recorded: Growth | Growth of test organism (Negative/Growth) [4, 7]: grow | Growth of test organism (Negative/Growth) ([4]; final concentration 0.31%): able to grow; also recorded: Growth | Growth of test organism (Negative/Growth) ([4]; final concentration 0.31%, listed as 95% pure form of 1,7-Bis(4-hydroxy-3-methoxyphenyl)-3,5-heptanedione): tolerant | Growth of test organism (Negative/Growth) ([4]; final concentration 0.625%): Negative | Growth of test organism (Negative/Growth) ([4]; final concentration 1.25%): Negative | Growth of test organism (Negative/Growth) ([4]; final concentration 2.5%): Negative | Growth of test organism (Negative/Growth) ([4]; final concentration 5%): Negative | Concentration of organism ([5]; test interval 0 days, listed as 1,7-bis(4-hydroxy-3-methoxyphenyl)-3,5-heptanedione (about 95% purity)): 25 × 10^5 cfu/ml | Concentration of organism [5, 8]: 19.7 × 10^5 cfu/ml | Log Reduction [5, 8]: 0.2 | Percent Reduction [5, 8]: 21.2% | Concentration of organism [5, 9]: 16 × 10^4 cfu/ml | Log Reduction [5, 9]: 2.3 | Percent Reduction [5, 9]: 99.3% | Concentration of organism [5, 10]: 53 × 10^5 cfu/ml | Log Reduction [5, 10]: 0.7 | Percent Reduction [5, 10]: 78.6% | Concentration of organism [5, 11]: 31.5 × 10^5 cfu/ml | Log Reduction [5, 11]: 0.8 | Percent Reduction [5, 11]: 87.4%

COc1cc(CCC(=O)CC(=O)CCc2ccc(O)c(OC)c2)ccc1O [TP, 1,7-Bis(4-hydroxy-3-methoxyphenyl)-3,5-heptanedione]
Activity against Malassezia furfur at all tested concentration, in contrast to the 95% pure form ([1]; 0.15% to 5%): enhanced activity | Growth of test organism (Negative/Growth) ([1]; final concentration 0.15%): Negative | Growth of test organism (Negative/Growth) ([1]; final concentration 0.31%): Negative | Growth of test organism (Negative/Growth) ([1]; final concentration 0.625%): Negative | Growth of test organism (Negative/Growth) ([1]; final concentration 1.25%): Negative | Growth of test organism (Negative/Growth) ([1]; final concentration 2.5%): Negative | Growth of test organism (Negative/Growth) ([1]; final concentration 5%): Negative | Day 0 count [6]: 1 × 10^7 CFU/g | Day 7 count [6]: <10 CFU/g | Day 14 count [6]: <10 CFU/g | Day 28 Count [6]: <10 CFU/g | Inhibition of growth at all tested concentrations [2]: inhibits the growth | Inhibition of growth at all tested concentrations [2, 12]: completely inhibiting the growth | Growth of test organism (Negative/Growth) ([2]; final concentration 0.15%): Negative | Growth of test organism (Negative/Growth) ([2]; final concentration 0.31%): Negative | Growth of test organism (Negative/Growth) ([2]; final concentration 0.625%): Negative | Growth of test organism (Negative/Growth) ([2]; final concentration 1.25%): Negative | Growth of test organism (Negative/Growth) ([2]; final concentration 2.5%): Negative | Growth of test organism (Negative/Growth) ([2]; final concentration 5%): Negative | Inhibition of growth at all tested concentrations [3]: inhibits the growth | Inhibition of growth at all tested concentrations [3, 12]: completely inhibiting the growth | Growth of test organism (Negative/Growth) ([3]; final concentration 0.15%): Negative | Growth of test organism (Negative/Growth) ([3]; final concentration 0.31%): Negative | Growth of test organism (Negative/Growth) ([3]; final concentration 0.625%): Negative | Growth of test organism (Negative/Growth) ([3]; final concentration 1.25%): Negative | Growth of test organism (Negative/Growth) ([3]; final concentration 2.5%): Negative | Growth of test organism (Negative/Growth) ([3]; final concentration 5%): Negative | Inhibition of growth at all tested concentrations [4]: inhibits the growth | Inhibition of growth at all tested concentrations [4, 12]: completely inhibiting the growth | Growth of test organism (Negative/Growth) ([4]; final concentration 0.15%): Negative | Growth of test organism (Negative/Growth) ([4]; final concentration 0.31%): Negative | Growth of test organism (Negative/Growth) ([4]; final concentration 0.625%): Negative | Growth of test organism (Negative/Growth) ([4]; final concentration 1.25%): Negative | Growth of test organism (Negative/Growth) ([4]; final concentration 2.5%): Negative | Growth of test organism (Negative/Growth) ([4]; final concentration 5%): Negative | Concentration of organism ([5]; test interval 0 days, listed as 1,7-bis(4-hydroxy-3-methoxyphenyl)-3,5-heptanedione (>99% purity)): 14.6 × 10^5 cfu/ml | Concentration of organism [5, 13]: 72 × 10^5 cfu/ml | Log Reduction [5, 13]: 0.5 | Percent Reduction [5, 13]: 50.6% | Concentration of organism [5, 14]: 20 × 10^8 cfu/ml | Log Reduction [5, 14]: 2.8 | Percent Reduction [5, 14]: 99.8% | Concentration of organism [5, 15]: 75 × 10^2 cfu/ml | Log Reduction [5, 15]: 3.4 | Percent Reduction [5, 15]: 99.94% | Concentration of organism [5, 16]: <130 cfu/ml | Log Reduction [5, 16]: 5.3 | Percent Reduction [5, 16]: 99.99% | Concentration of organism [5, 17]: less than 100 cfu/ml | Percent Reduction [5, 17]: 99.99%
